Results published in a compilation of properties of binary mixtures (doi:10.1007/s10953-008-9260-8).

Test: xn = mol fraction of the nth substance listed
Details: 101 kPa

CCCCCC[n+]1ccn(C)c1.F[B-](F)(F)F + CCCC[n+]1ccn(C)c1.F[B-](F)(F)F
viscosity [mPa·s]
Details	298.15 K	299.15 K	301.15 K	302.15 K	303.15 K	304.15 K	305.15 K	307.15 K	308.15 K
x2 = 0	209	197.3	175.8	165.9	157	148.6	140.7	126.7	120
x2 = 0.054	200.2	188.7	168.3	160.4	147.5	142.5	135.7	–	117.4
x2 = 0.103	–	–	164.5	156.8	147.1	–	132	119	–
x2 = 0.2076	172.4	161.3	145	137.3	130.2	122.8	117.3	106.1	101
x2 = 0.2995	167.3	161.3	141.6	134.2	127.2	120.6	114.6	–	98.5
x2 = 0.3602	165.7	156.7	140.4	–	–	119.8	–	102.6	–
x2 = 0.4383	158.7	149	133.4	126.3	119.7	113.7	–	97.4	–
x2 = 0.5047	149.8	144	129.1	122.4	116.1	–	104.7	94.6	90
x2 = 0.555	144	135.9	122.2	–	–	104.4	99.3	90	85.9
x2 = 0.598	142.4	134.7	121.1	114.9	108.6	103.6	–	89.3	85.2
x2 = 0.809	122.3	–	–	99.2	–	89.9	–	77.7	74.5
x2 = 0.8917	–	109.5	–	–	–	85	81	73.6	70.3

CC[n+]1ccn(C)c1.F[B-](F)(F)F + CCCCCC[n+]1ccn(C)c1.F[B-](F)(F)F
x1 = 1
Details	viscosity [mPa·s]
298.15 K	35.8
301.15 K	32.15
302.15 K	31.06
303.15 K	30.06
304.15 K	29.01
305.15 K	28.13
307.15 K	26.38

CCCC[n+]1ccn(C)c1.F[P-](F)(F)(F)(F)F + CCCC[n+]1ccn(C)c1.F[B-](F)(F)F
viscosity [mPa·s]
Details	298.15 K	299.15 K	301.15 K	302.15 K	303.15 K	304.15 K	305.15 K	307.15 K	308.15 K
x1 = 0.0568	106.8	101.3	–	–	–	79	75.3	68.5	65.39
x1 = 0.1034	–	–	–	94.4	89.7	85.5	81.4	74.3	70.9
x1 = 0.2095	128.1	–	109.5	103.9	98.8	94.2	89.5	81.3	–
x1 = 0.3012	137.4	130.1	117	111.1	105.4	100.2	95.3	86.4	82.4
x1 = 0.3825	146.7	139.9	125.6	–	113	107.1	102.1	–	–
x1 = 0.4647	157.7	145.6	131.8	–	118.1	111.8	106.9	96.4	91.9
x1 = 0.4999	169.3	159.7	–	135.8	128.2	–	–	103.9	98.4
x1 = 0.5385	168.5	159.6	142.9	134.8	–	121.6	114.9	104.1	–
x1 = 0.5974	182.5	172.4	156.7	145.4	137.6	130.5	123.9	111.8	106
x1 = 0.6928	201.4	190.1	169.9	160.9	155.3	144.1	–	123.3	116.9
x1 = 0.833	–	214	190.2	179.5	169.7	160.5	154.5	–	129.2
x1 = 0.8877	–	224	199	187.7	177.3	167.5	159	142.2	134.8
x1 = 0.945	249	234	208	196.2	185.4	175.3	–	–	142.5
x1 = 1	279	–	–	218	206	194.8	183.8	164.5	–

CCCCCC[n+]1ccn(C)c1.F[B-](F)(F)F + CC[n+]1ccn(C)c1.F[B-](F)(F)F
viscosity [mPa·s]
Details	298.15 K	299.15 K	301.15 K	302.15 K	303.15 K	304.15 K	305.15 K	307.15 K	308.15 K
x2 = 0	–	–	177.2	–	160.9	148.4	141.2	127.5	120.7
x2 = 0.0545	184.1	173.9	–	147.1	139.3	132.4	125.1	113.1	107.3
x2 = 0.1196	171.7	–	145.5	–	130.2	123.7	117.7	106	100.8
x2 = 0.1803	158.1	–	–	125.9	–	113.4	108	97.5	–
x2 = 0.3145	128.3	–	109.7	104.1	99.1	94.2	–	81.4	–
x2 = 0.4061	–	106	95.9	91.3	87	82.8	78.9	71.9	68.8
x2 = 0.446	104.5	99.3	89.9	85.6	81.6	77.7	74.3	67.8	64.8
x2 = 0.4938	96	–	82.7	78.6	75.1	71.7	–	62.6	–
x2 = 0.5526	86.7	82.5	75	71.4	–	65.3	62.36	57.17	54.84
x2 = 0.6006	78.3	–	68.1	64.9	–	59.61	–	52.51	–
x2 = 0.7059	64.3	61.64	56.52	54.22	–	–	47.93	44.34	42.66
x2 = 0.793	–	–	47.42	45.56	–	42.09	–	–	–
x2 = 0.8516	48.1	46.22	–	–	39.58	38.13	36.71	34.2	33
x2 = 0.9022	43.3	–	–	–	35.77	–	–	–	–

CCCC[n+]1ccn(C)c1.F[B-](F)(F)F + CCCCCC[n+]1ccn(C)c1.F[B-](F)(F)F
x1 = 1
Details	viscosity [mPa·s]
298.15 K	106.4
299.15 K	101
301.15 K	91.1
302.15 K	86.7
303.15 K	82.6
304.15 K	78.9
307.15 K	68.5
308.15 K	65.4

CCCC[n+]1ccn(C)c1.F[B-](F)(F)F + CCCC[n+]1ccn(C)c1.COS(=O)(=O)[O-]
x1 = 1
Details	viscosity [mPa·s]
298.15 K	108.9
299.15 K	103.5
301.15 K	93.2
303.15 K	84.5
304.15 K	80.5
307.15 K	69.9
308.15 K	66.8

CCCC[n+]1ccn(C)c1.COS(=O)(=O)[O-] + CCCC[n+]1ccn(C)c1.F[B-](F)(F)F
viscosity [mPa·s]
Details	298.15 K	299.15 K	301.15 K	302.15 K	303.15 K	304.15 K	305.15 K	307.15 K	308.15 K
x2 = 0	215	–	181.2	–	162.3	156.8	145.7	131.2	124.5
x2 = 0.1209	192.5	–	–	153.9	145.8	138.2	–	118.2	–
x2 = 0.2142	188.2	177.6	–	147	142.2	134.8	–	115.2	109.5
x2 = 0.3057	180.2	170.3	152.3	–	136.7	–	123.2	111.2	105.9
x2 = 0.406	168.1	160.7	142.4	135	–	121.4	115	104	–
x2 = 0.4358	–	151.3	–	129.3	122.4	116	110	–	94.5
x2 = 0.5118	–	147.4	132.1	125.1	–	112.7	107	96.8	92
x2 = 0.5412	149.5	143.6	128.6	–	115.8	–	104	93.9	89.6
x2 = 0.6026	–	138.4	124.1	–	111.4	105.7	–	–	86.8
x2 = 0.648	141.6	133.8	120	–	108	102.4	97.1	87.8	83.6
x2 = 0.6934	137.5	130	–	110.8	105.1	–	95.1	86.2	82
x2 = 0.7813	128.4	121.5	–	103.9	98.7	93.8	89.3	81.2	77.4
x2 = 0.9005	117.6	111.5	100.7	96	90.7	86.9	–	75.4	72.6
x2 = 0.9447	–	105.3	95.1	90.7	86.2	82	–	71.1	–

CCCC[n+]1ccn(C)c1.F[B-](F)(F)F + CCCC[n+]1ccn(C)c1.F[P-](F)(F)(F)(F)F
x2 = 0
Details	viscosity [mPa·s]
298.15 K	107.2
302.15 K	87.5
304.15 K	79.6
305.15 K	75.9
307.15 K	69.1
308.15 K	66.1
